Assay results: PubChem BioAssay (NCI)
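All cell lines were grown in 96-well plates and treated with compound for 48 hours. At the TGI there is no net growth.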

What was measured:
Assay in all cases: NCI-60 cell line screen, 48 h
EKVX NSCLC = system: EKVX NSCLC
MOLT-4 leukemia = system: MOLT-4 leukemia
SNB-19 CNS = system: SNB-19 CNS
HCT-15 colon = system: HCT-15 colon
BT-549 breast = system: BT-549 breast
MALME-3M melanoma = system: MALME-3M melanoma
MCF7 breast = system: MCF7 breast
A498 renal = system: A498 renal
NCI-H522 lung = system: NCI-H522 lung
HT29 colon = system: HT29 colon
SK-OV-3 ovarian = system: SK-OV-3 ovarian
UACC-257 melanoma = system: UACC-257 melanoma
HL-60(TB) leukemia = system: HL-60(TB) leukemia
M14 melanoma = system: M14 melanoma
NCI/ADR-RES ovarian = system: NCI/ADR-RES ovarian
SK-MEL-2 melanoma = system: SK-MEL-2 melanoma
ACHN renal = system: ACHN renal
SF-539 CNS = system: SF-539 CNS
HCT-116 colon = system: HCT-116 colon
SK-MEL-5 melanoma = system: SK-MEL-5 melanoma
OVCAR-8 ovarian = system: OVCAR-8 ovarian
U251 CNS = system: U251 CNS
CCRF-CEM leukemia = system: CCRF-CEM leukemia
HOP-62 NSCLC = system: HOP-62 NSCLC
SF-268 CNS = system: SF-268 CNS
SNB-75 CNS = system: SNB-75 CNS
KM12 colon = system: KM12 colon
COLO 205 colon = system: COLO 205 colon
SW-620 colon = system: SW-620 colon
K-562 leukemia = system: K-562 leukemia
RPMI-8226 leukemia = system: RPMI-8226 leukemia
HS 578T breast = system: HS 578T breast
HCC-2998 colon = system: HCC-2998 colon
A549 NSCLC = system: A549 NSCLC
IGROV1 ovarian = system: IGROV1 ovarian
PC-3 prostate = system: PC-3 prostate
TK-10 renal = system: TK-10 renal
UO-31 renal = system: UO-31 renal
MDA-N = system: MDA-N
OVCAR-5 ovarian = system: OVCAR-5 ovarian
T-47D breast = system: T-47D breast
NCI-H23 lung = system: NCI-H23 lung
NCI-H226 lung = system: NCI-H226 lung
LOX IMVI melanoma = system: LOX IMVI melanoma
786-0 renal = system: 786-0 renal
SK-MEL-28 melanoma = system: SK-MEL-28 melanoma
NCI-H460 lung = system: NCI-H460 lung
SF-295 CNS = system: SF-295 CNS
SR leukemia = system: SR leukemia
MDA-MB-435 = system: MDA-MB-435
OVCAR-3 ovarian = system: OVCAR-3 ovarian
UACC-62 melanoma = system: UACC-62 melanoma
MDA-MB-231 breast = system: MDA-MB-231 breast
CAKI-1 renal = system: CAKI-1 renal
SN12C renal = system: SN12C renal
DU-145 prostate = system: DU-145 prostate
RXF 393 renal = system: RXF 393 renal

For `COc1ccc(C2SCC(=O)N2c2ccc(-n3c(-c4ccccc4)nc4ccccc4c3=O)cc2)cc1OC` (configuration not stated), the TGI (EKVX NSCLC) was > 100 µM, the TGI (MOLT-4 leukemia) was > 100 µM and the TGI (SNB-19 CNS) was > 100 µM. For the same compound, the TGI (HCT-15 colon) was > 100 µM, the TGI (BT-549 breast) was > 100 µM and the TGI (MALME-3M melanoma) was > 100 µM. The TGI (MCF7 breast) was > 100 µM, the TGI (A498 renal) was > 100 µM and the TGI (NCI-H522 lung) was > 100 µM. For the same compound, the TGI (HT29 colon) was > 100 µM, the TGI (SK-OV-3 ovarian) was > 100 µM and the TGI (UACC-257 melanoma) was > 100 µM. The TGI (HL-60(TB) leukemia) was > 100 µM, the TGI (M14 melanoma) was > 100 µM and the TGI (NCI/ADR-RES ovarian) was > 100 µM. The TGI (SK-MEL-2 melanoma) was > 100 µM, the TGI (ACHN renal) was > 100 µM and the TGI (SF-539 CNS) was > 100 µM. The TGI (HCT-116 colon) was > 100 µM, the TGI (SK-MEL-5 melanoma) was > 100 µM and the TGI (OVCAR-8 ovarian) was > 100 µM. The TGI (U251 CNS) was > 100 µM, the TGI (CCRF-CEM leukemia) was > 100 µM and the TGI (HOP-62 NSCLC) was > 100 µM. For the same compound, the TGI (SF-268 CNS) was > 100 µM, the TGI (SNB-75 CNS) was 51.7 µM and the TGI (KM12 colon) was > 100 µM. For the same compound, the TGI (COLO 205 colon) was > 100 µM, the TGI (SW-620 colon) was > 100 µM and the TGI (K-562 leukemia) was > 100 µM. The TGI (RPMI-8226 leukemia) was > 100 µM, the TGI (HS 578T breast) was > 100 µM and the TGI (HCC-2998 colon) was > 100 µM. The TGI (A549 NSCLC) was > 100 µM, the TGI (IGROV1 ovarian) was > 100 µM and the TGI (PC-3 prostate) was > 100 µM. For the same compound, the TGI (TK-10 renal) was > 100 µM, the TGI (UO-31 renal) was > 100 µM and the TGI (MDA-N) was > 100 µM. The TGI (OVCAR-5 ovarian) was > 100 µM, the TGI (T-47D breast) was > 100 µM and the TGI (NCI-H23 lung) was > 100 µM. The TGI (NCI-H226 lung) was > 100 µM, the TGI (LOX IMVI melanoma) was > 100 µM and the TGI (786-0 renal) was > 100 µM. For the same compound, the TGI (SK-MEL-28 melanoma) was > 100 µM, the TGI (NCI-H460 lung) was > 100 µM and the TGI (SF-295 CNS) was > 100 µM. The TGI (SR leukemia) was > 100 µM, the TGI (MDA-MB-435) was > 100 µM and the TGI (OVCAR-3 ovarian) was > 100 µM. The TGI (UACC-62 melanoma) was > 100 µM, the TGI (MDA-MB-231 breast) was > 100 µM and the TGI (CAKI-1 renal) was > 100 µM. The TGI (SN12C renal) was > 100 µM.

For `CSc1cnn(CCC#N)c(=O)n1`, the TGI (EKVX NSCLC) was > 100 µM, the TGI (MOLT-4 leukemia) was > 100 µM and the TGI (SNB-19 CNS) was > 100 µM. The TGI (DU-145 prostate) was > 100 µM, the TGI (BT-549 breast) was > 100 µM and the TGI (MALME-3M melanoma) was > 100 µM. The TGI (MCF7 breast) was > 100 µM, the TGI (A498 renal) was > 100 µM and the TGI (NCI-H522 lung) was > 100 µM. For the same compound, the TGI (HT29 colon) was > 100 µM, the TGI (SK-OV-3 ovarian) was > 100 µM and the TGI (UACC-257 melanoma) was > 100 µM. The TGI (HL-60(TB) leukemia) was > 100 µM, the TGI (M14 melanoma) was > 100 µM and the TGI (ACHN renal) was > 100 µM. The TGI (SF-539 CNS) was > 100 µM, the TGI (HCT-116 colon) was > 100 µM and the TGI (SK-MEL-5 melanoma) was > 100 µM. For the same compound, the TGI (OVCAR-8 ovarian) was > 100 µM, the TGI (U251 CNS) was > 100 µM and the TGI (CCRF-CEM leukemia) was > 100 µM. For the same compound, the TGI (HOP-62 NSCLC) was > 100 µM, the TGI (SF-268 CNS) was > 100 µM and the TGI (SNB-75 CNS) was > 100 µM. For the same compound, the TGI (KM12 colon) was > 100 µM, the TGI (COLO 205 colon) was > 100 µM and the TGI (SW-620 colon) was > 100 µM. For the same compound, the TGI (K-562 leukemia) was > 100 µM, the TGI (RPMI-8226 leukemia) was > 100 µM and the TGI (HS 578T breast) was > 100 µM. The TGI (HCC-2998 colon) was > 100 µM, the TGI (A549 NSCLC) was > 100 µM and the TGI (IGROV1 ovarian) was > 100 µM. The TGI (PC-3 prostate) was > 100 µM, the TGI (TK-10 renal) was > 100 µM and the TGI (UO-31 renal) was > 100 µM. For the same compound, the TGI (MDA-N) was > 100 µM, the TGI (OVCAR-5 ovarian) was > 100 µM and the TGI (T-47D breast) was > 100 µM. The TGI (NCI-H23 lung) was > 100 µM, the TGI (NCI-H226 lung) was > 100 µM and the TGI (LOX IMVI melanoma) was > 100 µM. For the same compound, the TGI (786-0 renal) was > 100 µM, the TGI (SK-MEL-28 melanoma) was > 100 µM and the TGI (SF-295 CNS) was > 100 µM. For the same compound, the TGI (SR leukemia) was > 100 µM, the TGI (MDA-MB-435) was > 100 µM and the TGI (RXF 393 renal) was > 100 µM. For the same compound, the TGI (UACC-62 melanoma) was > 100 µM, the TGI (MDA-MB-231 breast) was > 100 µM and the TGI (CAKI-1 renal) was > 100 µM. For the same compound, the TGI (SN12C renal) was > 100 µM.
